Where two headings read alike, the source gives them in different places.
Columns and labels:
PC-3-KQ cells = test: 3D spheroid invasion assay and screening of FDA-approved drugs; type: cell-based, human; conditions: for activity at 0.01 µM / activity at 0.1 µM / activity at 1 µM / activity at 10 µM / inhibition at 0.1 µM: Homo sapiens; for activity at 0.01 µM / activity at 0.1 µM / activity at 1 µM / activity at 10 µM: 72 h; for activity at 0.01 µM / activity at 0.1 µM / activity at 1 µM / activity at 10 µM / Invasion rates (%) of each drug’s multiple concentrations (μM): compared to vehicle control; for inhibition at 0.1 µM: read-out: inhibition of cell invasion
How it was run: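 Cells were clustered into spheroids by centrifugation and grown 3 days, then embedded in matrigel-medium containing drug on day 4 and cultured another 3 days. Drugs were screened at 10 μM first, then at 0–10 μM, in duplicate wells. Invasion area is total area minus core sphere area from phase-contrast images.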

[1] = test system: DU 145 (KLF5 null) cells expressing KLF5^K369R; test: CCK-8 cell viability assay; type: cell-based; conditions: Homo sapiens, CCK-8, 48 h
Method: (§1) According to the manufacturer's instructions, cell viability was measured using a kit from Beyotime Biotechnology. Briefly, cells were seeded onto 96-well plates at 5 × 10^3 cells per well, incubated overnight, and then treated for 48 h with drugs at 0, 0.02, 0.05, 0.14, 0.41, 1.23, 3.7, 11.1, 33.3, and 100 μM. Four drugs were analyzed: furagin, nifuratel, nitazoxanide, and retapamulin. At the end of drug treatment, the medium was removed, the CCK-8 solution was added into each well at 100 μL/well and incubated for 1.5 h at 37°C, and the optical density (OD) was measured at 450 nm using a microplate reader (BioTek).

[2] = test system: DU 145 (KLF5 null) cells expressing KLF5; test: CCK-8 cell viability assay; type: cell-based; conditions: Homo sapiens, CCK-8, 48 h
Method: as §1

[3] = test system: PC-3 (KLF5 null) cells expressing KLF5^K369R; test: CCK-8 cell viability assay; type: cell-based; conditions: Homo sapiens, CCK-8, 48 h
Method: as §1

[4] = test system: PC-3 (KLF5 null) cells expressing KLF5; test: CCK-8 cell viability assay; type: cell-based; conditions: Homo sapiens, CCK-8, 48 h
Method: as §1

[5] = test system: DU 145 (KLF5 null) cells expressing KLF5^K369Q; test: CCK-8 cell viability assay; type: cell-based, human; conditions: Homo sapiens; DU 145 (KLF5 null), KLF5^K369Q; CCK-8, 48 h
Method: as §1
(§2) We also tested a wider range of NTZ concentrations in PC-3-KQ and DU 145-KQ cells using the CCK-8 assay by seeding 2 × 10^3 cells and 2.5 × 10^3 cells onto each well of 96-well plates. PC-3-KQ cells were treated with NTZ at 0, 0.01, 0.1, […], 2.5, and 5 μM, while DU 145-KQ cells were treated with NTZ at 0, 0.01, 0.1, 5, 10, and 20 μM for 0, 24, 48, and 72 h. The number of viable cells was determined using the CCK-8 solution as described above.

[6] = test system: PC-3 (KLF5 null) cells expressing KLF5^K369Q; test: CCK-8 cell viability assay; type: cell-based, human; conditions: Homo sapiens; PC-3 (KLF5 null), KLF5^K369Q; CCK-8, 48 h
Method: as §1, §2

[7] = 0.01 μM (first column so headed), secondary screening of 87 hit compounds (Table S1), read-out: Invasion rates (%) of each drug’s multiple concentrations
[8] = 0.01 μM (first column so headed), third screening of 25 hit compounds (Table S2), read-out: Invasion rates (%) of each drug’s multiple concentrations
[9] = 0.01 μM (second column so headed), secondary screening of 87 hit compounds (Table S1), read-out: Invasion rates (%) of each drug’s multiple concentrations
[10] = 0.01 μM (second column so headed), third screening of 25 hit compounds (Table S2), read-out: Invasion rates (%) of each drug’s multiple concentrations
[11] = 0.1 μM, secondary screening of 87 hit compounds (Table S1), read-out: Invasion rates (%) of each drug’s multiple concentrations
[12] = 0.1 μM, third screening of 25 hit compounds (Table S2), read-out: Invasion rates (%) of each drug’s multiple concentrations
[13] = 1 μM, secondary screening of 87 hit compounds (Table S1), read-out: Invasion rates (%) of each drug’s multiple concentrations
[14] = 1 μM, third screening of 25 hit compounds (Table S2), read-out: Invasion rates (%) of each drug’s multiple concentrations
[15] = 10 μM, secondary screening of 87 hit compounds (Table S1), read-out: Invasion rates (%) of each drug’s multiple concentrations
[16] = 10 μM, third screening of 25 hit compounds (Table S2), read-out: Invasion rates (%) of each drug’s multiple concentrations
[17] = 0.01 μM (first column so headed), secondary screening of 87 hit compounds (Table S1)
[18] = 0.01 μM (second column so headed), secondary screening of 87 hit compounds (Table S1)
[19] = 0.1 μM, secondary screening of 87 hit compounds (Table S1)
[20] = 1 μM, secondary screening of 87 hit compounds (Table S1)
[21] = 10 μM, secondary screening of 87 hit compounds (Table S1)

Compound	activity at 0.01 µM (PC-3-KQ cells; [7])	activity at 0.01 µM (PC-3-KQ cells; [8])	activity at 0.01 µM (PC-3-KQ cells; [9])	activity at 0.01 µM (PC-3-KQ cells; [10])	activity at 0.1 µM (PC-3-KQ cells; [11])	activity at 0.1 µM (PC-3-KQ cells; [12])	activity at 1 µM (PC-3-KQ cells; [13])	activity at 1 µM (PC-3-KQ cells; [14])	activity at 10 µM (PC-3-KQ cells; [15])	activity at 10 µM (PC-3-KQ cells; [16])	further results
O=C1CN(/N=C/C=C/c2ccc([N+](=O)[O-])o2)C(=O)N1 [Furagin]	24.8%	77.1%	42.2%	97.5%	5.95%	2.26%	3.36%	2.3%	2.18%	1.29%	inhibition at 0.1 µM (PC-3-KQ cells): > 50%; IC50 [1]: 359 ± 127 µM; IC50 [2]: 31.4 ± 4 µM; IC50 [3]: 101 ± 27.9 µM; IC50 [4]: 17.3 ± 2.2 µM; IC50 [5]: 63.3 ± 2.4 µM; IC50 [6]: 28.6 ± 1.9 µM
C=C[C@]1(C)C[C@@H](OC(=O)CS[C@@H]2C[C@H]3CC[C@@H](C2)N3C)[C@]2(C)[C@H](C)CC[C@]3(CCC(=O)[C@H]32)[C@@H](C)[C@@H]1O [Retapamulin]	7.43%	74.4%	–	94.3%	7.18%	4.92%	7.28%	1.65%	4.68%	2.42%	inhibition at 0.1 µM (PC-3-KQ cells): > 50%; IC50 [1]: 11.1 ± 0.8 µM; IC50 [2]: 13.7 ± 2.7 µM; IC50 [3]: 12.2 ± 1.1 µM; IC50 [4]: 1.6 ± 0.3 µM; IC50 [5]: 14.7 ± 1.5 µM; IC50 [6]: 12.6 ± 2.3 µM
O=C(N/N=C/c1ccc([N+](=O)[O-])o1)c1ccc(O)cc1 [Nifuroxazide]	68.1%	97.2%	86.4%	94.3%	50.2%	86.5%	9.13%	7.31%	2.06%	1.51%	–
CO[C@@H]1[C@H](N(C)C(=O)c2ccccc2)C[C@H]2O[C@]1(C)n1c3ccccc3c3c4c(c5c6ccccc6n2c5c31)C(=O)NC4 [Midostaurin]	97.5%	–	98.7%	–	96%	–	95.8%	–	34.3%	–	–
O=C(Cn1ccnc1[N+](=O)[O-])NCc1ccccc1 [Benznidazol]	92.5%	–	94.3%	–	88.1%	–	90.9%	–	4.48%	–	–
Cc1ncc([N+](=O)[O-])n1CC(O)CN1CCOCC1 (single isomer, unassigned) [Morinidazole (R enantiomer)]	–	–	–	–	–	–	–	–	–	–	Invasion rates (%) of each drug’s multiple concentrations (μM) (PC-3-KQ cells; [17]): 90.71%; Invasion rates (%) of each drug’s multiple concentrations (μM) (PC-3-KQ cells; 0.01 μM (first column so headed), third screening of 25 hit compounds (Table S2)): 95.71%; Invasion rates (%) of each drug’s multiple concentrations (μM) (PC-3-KQ cells; [18]): 98.08%; Invasion rates (%) of each drug’s multiple concentrations (μM) (PC-3-KQ cells; 0.01 μM (second column so headed), third screening of 25 hit compounds (Table S2)): 97.64%; Invasion rates (%) of each drug’s multiple concentrations (μM) (PC-3-KQ cells; [19]): 89.69%; Invasion rates (%) of each drug’s multiple concentrations (μM) (PC-3-KQ cells; 0.1 μM, third screening of 25 hit compounds (Table S2)): 94.21%; Invasion rates (%) of each drug’s multiple concentrations (μM) (PC-3-KQ cells; [20]): 10.13%; Invasion rates (%) of each drug’s multiple concentrations (μM) (PC-3-KQ cells; 1 μM, third screening of 25 hit compounds (Table S2)): 6.21%; Invasion rates (%) of each drug’s multiple concentrations (μM) (PC-3-KQ cells; [21]): 2.86%; Invasion rates (%) of each drug’s multiple concentrations (μM) (PC-3-KQ cells; 10 μM, third screening of 25 hit compounds (Table S2)): 0.38%
CC[C@@]1(O)C[C@H](O[C@H]2C[C@H](N(C)C)[C@H](O[C@H]3C[C@H](O)[C@H](O[C@H]4CCC(=O)[C@H](C)O4)[C@H](C)O3)[C@H](C)O2)c2c(cc3c(c2O)C(=O)c2c(O)cccc2C3=O)[C@H]1C(=O)OC.Cl [Aclacinomycin A hydrochloride]	–	–	–	–	–	–	–	–	–	–	Invasion rates (%) of each drug’s multiple concentrations (μM) (PC-3-KQ cells; [17]): 84.24%; Invasion rates (%) of each drug’s multiple concentrations (μM) (PC-3-KQ cells; [18]): 96.55%; Invasion rates (%) of each drug’s multiple concentrations (μM) (PC-3-KQ cells; [19]): 76.95%; Invasion rates (%) of each drug’s multiple concentrations (μM) (PC-3-KQ cells; [20]): 81.36%; Invasion rates (%) of each drug’s multiple concentrations (μM) (PC-3-KQ cells; [21]): 1.28%
CCc1c(Cl)c(O)c(Cl)c(O)c1C(=O)O[C@H]1[C@H](O)[C@H](OC)[C@H](OC/C2=C\C=C\C[C@H](O)/C(C)=C/[C@H](CC)[C@@H](O[C@@H]3OC(C)(C)[C@@H](OC(=O)C(C)C)[C@H](O)[C@@H]3O)/C(C)=C/C(C)=C/C[C@@H]([C@@H](C)O)OC2=O)O[C@@H]1C [Fidaxomicin]	100%	–	103%	–	99.5%	–	96%	–	41.5%	–	–
CC(C)C[C@H](NC(=O)[C@H](Cc1ccccc1)NC(=O)c1cnccn1)B(O)O [Bortezomib]	29.5%	84.3%	75.3%	92.8%	5.79%	66.1%	4.37%	35.3%	0.98%	9.72%	–
Cc1nc(Nc2ncc(C(=O)Nc3c(C)cccc3Cl)s2)cc(N2CCN(CCO)CC2)n1 [Dasatinib]	46.2%	95.1%	49.7%	97.7%	37.7%	83.4%	37.1%	71.7%	15.1%	0.9%	–
Cn1c([N+](=O)[O-])cnc1COC(N)=O [Ronidazole]	64.2%	81.8%	67.3%	87.5%	27.6%	5.74%	5.96%	3.06%	5.14%	2.89%	inhibition at 0.1 µM (PC-3-KQ cells): > 50%
Cc1ccc(C(=O)Nc2ccc(CN3CCN(C)CC3)c(C(F)(F)F)c2)cc1C#Cc1cnc2cccnn12 [Ponatinib]	–	–	–	–	–	–	–	–	–	–	activity at 0.01 µM (PC-3-KQ cells; read-out: Invasion rates (%) of each drug’s multiple concentrations (μM), 0.01 μM (first column so headed), secondary screening of 87 hit compounds (Table S1)): 94.4%; activity at 0.01 µM (PC-3-KQ cells; read-out: Invasion rates (%) of each drug’s multiple concentrations (μM), 0.01 μM (second column so headed), secondary screening of 87 hit compounds (Table S1)): 94.5%; activity at 0.1 µM (PC-3-KQ cells; read-out: Invasion rates (%) of each drug’s multiple concentrations (μM), 0.1 μM, secondary screening of 87 hit compounds (Table S1)): 94.8%; activity at 1 µM (PC-3-KQ cells; read-out: Invasion rates (%) of each drug’s multiple concentrations (μM), 1 μM, secondary screening of 87 hit compounds (Table S1)): 91%; activity at 10 µM (PC-3-KQ cells; read-out: Invasion rates (%) of each drug’s multiple concentrations (μM), 10 μM, secondary screening of 87 hit compounds (Table S1)): 17.7%
Cc1ncc([N+](=O)[O-])n1CC(O)CN1CCOCC1 (stereo not shown) [Morinidazole]	83.3%	–	89.7%	–	75.5%	–	60%	–	4%	–	–
CCS(=O)(=O)CCn1c([N+](=O)[O-])cnc1C [Tinidazole]	78.9%	89.2%	90.7%	88.2%	47.1%	90.2%	6.59%	8.88%	2.67%	2.87%	–

Source: paper PMC9945734 (BMC Medicine, 2023)
